# Counter-ions that a name gives are not always drawn.
# System: Acinetobacter baumannii ATCC17961
# Assay: Antimicrobial susceptibility testing: 90% growth inhibitory concentration (IC90) determination in Iso-Sensitest broth, OD600 growth
# Assay type: cell-based
# Settings: Acinetobacter baumannii, ATCC17961, 16 h, read-out: A. baumannii ATCC 17961 IC90 (uM), strain ATCC 17961, OD600 growth over 16 h
# Procedure, shortened: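 Each strain, at about 5×10^(5) CFU/ml, was incubated with twofold dilutions of compound at 35±2° C for 16 h, and IC90 was calculated from kinetic optical density measured at 600 nm during logarithmic growth.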
row,SMILES,IC90
1,"CCc1cc(Nc2nccn3c(-c4cn(CC(F)F)nc4C(F)(F)F)cnc23)ccc1C(=O)NCCCNC(=O)[C@H]1CC[C@@H](N)C1 [Example 485, N-(3-((1S,3R)-3-aminocyclopentane-1-carboxamido)propsl)-4-((3-(1-(2,2-difluoroethyl)-3-(trifluoromethyl)-1H-pyrazol-4-yl)imidazo[1,2-a]pyrazin-8-yl)amino)-2-ethylbenzamide formate]",0.189 µM
2,"CCc1cc(Nc2nccn3c(-c4cn(CC#N)nc4C(F)(F)F)cnc23)ccc1C(=O)NCC(=O)N1CC2(CNC2)C1 [Example 505, 4-[[3-[1-(cyanomethyl)-3-(trifluoromethyl)pyrazol-4-yl]imidazo[1,2-a]pyrazin-8-yl]amino]-N-[2-(2,6-diazaspiro[3.3]heptan-2-yl)-2-oxo-ethyl]-2-ethyl-benzamide formate]",0.449 µM
3,"CCc1cc(Nc2nccn3c(-c4cn(CC#N)nc4C(F)(F)F)cnc23)ccc1C(=O)NCC(=O)N1CCCC(N)C1 (centres unmarked) [Example 506, N-[2-(3-amino-1-piperidyl)-2-oxo-ethyl]-4-[[3-[1-(cyanomethyl)-3-(trifluoromethyl)pyrazol-4-yl]imidazo[1,2-a]pyrazin-8-yl]amino]-2-ethyl-benzamide formate]",0.191 µM

# Same assay, conditions: Acinetobacter baumannii, ATCC17961, 16 h, strain ATCC 17961, OD600 growth over 16 h, read-out: A. baumannii ATCC 17961 IC90
row,IC90,SMILES
1,0.154 µM,"CCc1cc(Nc2nccn3c(-c4cn(CC#N)nc4C(F)(F)F)cnc23)ccc1C(=O)NCCCNC(=O)[C@H]1CC[C@@H](N)C1 [Example 484, N-(3-((1S,3R)-3-aminocyclopentane-1-carboxamido)propyl)-4-((3-(1-(cyanomethyl)-3-(trifluoromethyl)-1H-pyrazol-4-yl)imidazo[1,2-a]pyrazin-8-yl)amino)-2-ethylbenzamide formate]"
2,0.208 µM,"CCc1cc(Nc2nccn3c(-c4cn(CC#N)nc4C(F)(F)F)cnc23)ccc1C(=O)NCCNC(=O)C1CCNCC1 [Example 486, N-(2-(4-((3-(1-(cyanomethyl)-3-(trifluoromethyl)-1H-pyrazol-4-yl)imidazo[1,2-a]pyrazin-8-yl)amino)-2-ethylbenzamido)ethyl)piperidine-4-carboxamide formate]"
3,0.171 µM,"CCc1cc(Nc2nccn3c(-c4cn(CC#N)nc4C(F)(F)F)cnc23)ccc1C(=O)NCCNC(=O)[C@H]1C[C@H](N)C1 [Example 487, N-(2-((1r,3r)-3-aminocyclobutane-1-carboxamido)ethyl)-4-((3-(1-(cyanomethyl)-3-(trifluoromethyl)-1H-pyrazol-4-yl)imidazo[1,2-a]pyrazin-8-yl)amino)-2-ethylbenzamide formate]"
4,0.147 µM,"CCc1cc(Nc2nccn3c(-c4cn(CC(F)F)nc4C(F)(F)F)cnc23)ccc1C(=O)NCCNC(=O)[C@H]1C[C@H](N)C1 [Example 488, N-(2-((1r,3r)-3-aminocyclobutane-1-carboxamido)ethyl)-4-((3-(1-(2,2-difluoroethyl)-3-(trifluoromethyl)-1H-pyrazol-4-yl)imidazo[1,2-a]pyrazin-8-yl)amino)-2-ethylbenzamide formate]"
5,0.184 µM,"CCc1cc(Nc2nccn3c(-c4cn(CC(F)F)nc4C(F)(F)F)cnc23)ccc1C(=O)NCCNC(=O)N1CC[C@H](N)C1 [Example 489, (S)-3-amino-N-(2-(4-((3-(1-(2,2-difluoroethyl)-3-(trifluoromethyl)-1H-pyrazol-4-yl)imidazo[1,2-a]pyrazin-8-yl)amino)-2-ethylbenzamido)ethyl)pyrrolidine-1-carboxamide formate]"
6,0.196 µM,"CCc1cc(Nc2nccn3c(-c4cn(CC(F)F)nc4C(F)(F)F)cnc23)ccc1C(=O)NCCNC(=O)[C@@H]1CC[C@@H](N)C1 [Example 490, N-(2-((1R,3R)-3-aminocyclopentane-1-carboxamido)ethyl)-4-((3-(1-(2,2-difluoroethyl)-3-(trifluoromethyl)-1H-pyrazol-4-yl)imidazo[1,2-a]pyrazin-8-yl)amino)-2-ethylbenzamide formate]"
7,0.195 µM,"CCc1cc(Nc2nccn3c(-c4cn(CC#N)nc4C(F)(F)F)cnc23)ccc1C(=O)NCCNC(=O)[C@H]1CC[C@H](N)C1 [Example 491, N-(2-((1S,3S)-3-aminocyclopentane-1-carboxamido)ethyl)-4-((3-(1-(cyanomethyl)-3-(trifluoromethyl)-1H-pyrazol-4-yl)imidazo[1,2-a]pyrazin-8-yl)amino)-2-ethylbenzamide formate]"
8,0.2 µM,"CCc1cc(Nc2nccn3c(-c4cn(CC(F)F)nc4C(F)(F)F)cnc23)ccc1C(=O)NCCNC(=O)[C@H]1CC[C@H](N)C1 [Example 492, N-(2-((1S,3S)-3-aminocyclopentane-1-carboxamido)ethyl)-4-((3-(1-(2,2-difluoroethyl)-3-(trifluoromethyl)-1H-pyrazol-4-yl)imidazo[1,2-a]pyrazin-8-yl)amino)-2-ethylbenzamide formate]"
9,0.129 µM,"CCc1cc(Nc2nccn3c(-c4cn(CC#N)nc4C(F)(F)F)cnc23)ccc1C(=O)NCCNC(=O)[C@H](C)N [Example 493, (S)-N-(2-(2-aminopropanamido)ethyl)-4-((3-(1-(cyanomethyl)-3-(trifluoromethyl)-1H-pyrazol-4-yl)imidazo[1,2-a]pyrazin-8-yl)amino)-2-ethylbenzamide formate]"
10,0.157 µM,"CCc1cc(Nc2nccn3c(-c4cn(CC#N)nc4C(F)(F)F)cnc23)ccc1C(=O)NCCNC(=O)[C@@H]1CC[C@H](N)C1 [Example 494, N-(2-((1R,3S)-3-aminocyclopentane-1-carboxamido)ethyl)-4-((3-(1-(cyanomethyl)-3-(trifluoromethyl)-1H-pyrazol-4-yl)imidazo[1,2-a]pyrazin-8-yl)amino)-2-ethylbenzamide formate]"
11,0.173 µM,"CCc1cc(Nc2nccn3c(-c4cn(CC(F)F)nc4C(F)(F)F)cnc23)ccc1C(=O)NCCNC(=O)[C@H]1CC[C@@H](N)C1 [Example 495, N-(2-((1S,3R)-3-aminocyclopentane-1-carboxamido)ethyl)-4-((3-(1-(2,2-difluoroethyl)-3-(trifluoromethyl)-1H-pyrazol-4-yl)imidazo[1,2-a]pyrazin-8-yl)amino)-2-ethylbenzamide formate]"
12,0.173 µM,"CCc1cc(Nc2nccn3c(-c4cn(CC#N)nc4C(F)(F)F)cnc23)ccc1C(=O)NCCNC(=O)[C@H]1CC[C@@H](N)C1 [Example 496, N-(2-((1S,3R)-3-aminocyclopentane-1-carboxamido)ethyl)-4-((3-(1-(cyanomethyl)-3-(trifluoromethyl)-1H-pyrazol-4-yl)imidazo[1,2-a]pyrazin-8-yl)amino)-2-ethylbenzamide formate]"
13,0.183 µM,"CCc1cc(Nc2nccn3c(-c4cn(CC(F)F)nc4C(F)(F)F)cnc23)ccc1C(=O)NCCNC(=O)[C@@H]1CC[C@H](N)C1 [Example 497, N-(2-((1R,3S)-3-aminocyclopentane-1-carboxamido)ethyl)-4-((3-(1-(2,2-difluoroethyl)-3-(trifluoromethyl)-1H-pyrazol-4-yl)imidazo[1,2-a]pyrazin-8-yl)amino)-2-ethylbenzamide formate]"
14,0.193 µM,"CCc1cc(Nc2nccn3c(-c4cn(CC#N)nc4C(F)(F)F)cnc23)ccc1C(=O)NCCNC(=O)[C@H]1C[C@@H](N)C1 [Example 498, cis-N-(2-((1s,3s)-3-aminocyclobutane-1-carboxamido)ethyl)-4-((3-(1-(cyanomethyl)-3-(trifluoromethyl)-1H-pyrazol-4-yl)imidazo[1,2-a]pyrazin-8-yl)amino)-2-ethylbenzamide formate]"
15,0.218 µM,"CCc1cc(Nc2nccn3c(-c4cn(CC#N)nc4C(F)(F)F)cnc23)ccc1C(=O)NCC(=O)N1CCNCC1 [Example 499, 4-[[3-[1-(cyanomethyl)-3-(trifluoromethyl)pyrazol-4-yl]imidazo[1,2-a]pyrazin-8-yl]amino]-2-ethyl-N-(2-oxo-2-piperazin-1-yl-ethyl)benzamide formate]"
16,0.222 µM,"CCc1cc(Nc2nccn3c(-c4cn(CC#N)nc4C(F)(F)F)cnc23)ccc1C(=O)NCC(=O)N1CCC(N)CC1 [Example 500, N-[2-(4-amino-1-piperidyl)-2-oxo-ethyl]-4-[[3-[1-(cyanomethyl)-3-(trifluoromethyl)pyrazol-4-yl]imidazo[1,2-a]pyrazin-8-yl]amino]-2-ethyl-benzamide formate]"
17,0.224 µM,"N#CCn1cc(-c2cnc3c(Nc4ccc(C(=O)NCC(=O)N5CCNCC5)c(Cl)c4)nccn23)c(C(F)(F)F)n1 [Example 501, 2-chloro-4-[[3-[1-(cyanomethyl)-3-(trifluoromethyl)pyrazol-4-yl]imidazo[1,2-a]pyrazin-8-yl]amino]-N-(2-oxo-2-piperazin-1-yl-ethyl)benzamide formate]"
18,0.233 µM,"N#CCn1cc(-c2cnc3c(Nc4ccc(C(=O)NCC(=O)N5CCC(N)CC5)c(Cl)c4)nccn23)c(C(F)(F)F)n1 [Example 502, N-[2-(4-amino-1-piperidyl)-2-oxo-ethyl]-2-chloro-4-[[3-[1-(cyanomethyl)-3-(trifluoromethyl)pyrazol-4-yl]imidazo[1,2-a]pyrazin-8-yl]amino]benzamide formate]"
19,0.233 µM,"Cc1cc(Nc2nccn3c(-c4cn(CC#N)nc4C(F)(F)F)cnc23)ccc1C(=O)NCC(=O)N1CCC(N)CC1 [Example 503, N-[2-(4-amino-1-piperidyl)-2-oxo-ethyl]-4-[[3-[1-(cyanomethyl)-3-(trifluoromethyl)pyrazol-4-yl]imidazo[1,2-a]pyrazin-8-yl]amino]-2-methyl-benzamide formate]"
20,0.238 µM,"CCc1cc(Nc2nccn3c(-c4cn(CC#N)nc4C(F)(F)F)cnc23)ccc1C(=O)NCC(=O)N1CC[C@@H](N)C1 [Example 504, N-[2-[(3R)-3-aminopyrrolidin-1-yl]-2-oxo-ethyl]-4-[[3-[1-(cyanomethyl)-3-(trifluoromethyl)pyrazol-4-yl]imidazo[1,2-a]pyrazin-8-yl]amino]-2-ethyl-benzamide formate]"

# Reference: patent US20230203043A1, “NOVEL IMIDAZOPYRAZINE DERIVATIVES” (Hoffmann-La Roche Inc., priority 2020, published 2023)
